Measured values as given in paper PMC8887546, “Design and Synthesis of Brain Penetrant Glycopeptide Analogues of PACAP With Neuroprotective Potential for Traumatic Brain Injury and Parkinsonism” (Frontiers in drug discovery, 2022).

Experiments:
[1] = test system: C57BL/6 mice, diffuse TBI; assay: Rotarod after TBI; type: in vivo, mouse; conditions: 10 mg/kg i.p. 30 min prior to TBI, 2, 5 and 7 DPI
Description: (§1) 30 min prior to TBI or sham injury, mice were randomly assigned to a therapeutic group and received an intraperitoneal injection of 2LS80Mel (10 mg/kg) or sterile saline (0.25 ml). Groups were as follows: TBI-2LS80Mel n = 17; TBI-vehicle n = 17; sham n = 22 (vehicle n = 11, 2LS80Mel n = 11).
For injury induction 24 h post-surgery, mice were re-anesthetized with 5% isoflurane delivered for 3 min. The cap was removed from the injury-hub assembly and the dura was visually inspected through the hub to ensure it was intact with no debris. […] Injured mice were monitored for presence of a forearm fencing response and righting reflex times were recorded as indicators of injury severity ([Hosseini and Lifshitz, 2009]). […] After spontaneously righting, mice were placed in a heated recovery cage and monitored until they were ambulatory (approximately 5–15 min) before being returned to their piezoelectric sleep cage (see below). […]
Sensorimotor function was assessed using the Rotor-Rod system (San Diego Instruments) as we have previously published ([Rowe et al., 2018]). […] Following acclimation, mice were trained over three consecutive days prior to surgery/injury and the last training session was recorded as baseline. […]

[2] = test system: C57BL/6 mice, diffuse TBI; assay: Flow cytometry analysis of blood after TBI; type: in vivo, mouse; conditions: 10 mg/kg i.p. 30 min prior to TBI
Description: as §1
For injury induction 24 h post-surgery, mice were re-anesthetized with 5% isoflurane delivered for 3 min. The cap was removed from the injury-hub assembly and the dura was visually inspected through the hub to ensure it was intact with no debris. The hub was then filled with normal saline and attached to an extension tube connected to the male end of the fluid percussion device (Custom Design and Fabrication, Virginia Commonwealth University, Richmond, VA). An injury of moderate severity for our injury model (1.4 atm) was administered by releasing the pendulum onto the fluid-filled cylinder following the return of a toe-pinch response. Sham mice underwent the same procedure except the pendulum was not released. Injured mice were monitored for presence of a forearm fencing response and righting reflex times were recorded as indicators of injury severity ([Hosseini and Lifshitz, 2009]). The righting reflex time is the total time from the initial impact until the mouse spontaneously rights itself from a supine position. The fencing response is a tonic posturing characterized by extension and flexion of opposite arms that has been validated as an overt indicator of injury severity ([Hosseini and Lifshitz, 2009]). The injury hub was removed, and the brain was inspected for uniform herniation and integrity of the dura. The incision was cleaned with saline and closed using sutures. Moderately brain-injured mice had righting reflex recovery times greater than 4 min and a positive fencing response. […] After spontaneously righting, mice were placed in a heated recovery cage and monitored until they were ambulatory (approximately 5–15 min) before being returned to their piezoelectric sleep cage (see below). […]

SMILES: CC[C@H](C)[C@H](NC(=O)CNC(=O)[C@H](CC(=O)O)NC(=O)[C@H](CO)NC(=O)[C@@H](N)Cc1c[nH]cn1)C(=O)N[C@@H](Cc1ccccc1)C(=O)N[C@H](C(=O)N[C@@H](CC(=O)O)C(=O)N[C@@H](CO)C(=O)N[C@@H](Cc1ccc(O)cc1)C(=O)N[C@@H](CO)C(=O)N[C@@H](CCCNC(=N)N)C(=O)N[C@@H](Cc1ccc(O)cc1)C(=O)N[C@@H](CCCNC(=N)N)C(=O)N[C@@H](CCCCN)C(=O)N[C@@H](CCC(N)=O)C(=O)N[C@@H](CC(C)C)C(=O)N[C@@H](C)C(=O)N[C@H](C(=O)N[C@@H](CCCCN)C(=O)N[C@@H](CCCCN)C(=O)N[C@@H](Cc1ccc(O)cc1)C(=O)N[C@@H](CC(C)C)C(=O)N[C@@H](C)C(=O)N[C@@H](C)C(=O)N[C@H](C(=O)N[C@@H](CC(C)C)C(=O)N[C@@H](CO[C@@H]1O[C@H](CO[C@H]2O[C@H](CO)[C@H](O)[C@H](O)[C@H]2O)[C@@H](O)[C@H](O)[C@H]1O)C(N)=O)C(C)C)C(C)C)[C@@H](C)O [Compound 2LS80Mel]
- Rotarod latency to fall [1]: comparable to uninjured shams at all time points post-injury
- CD11b+CD115+Ly6Chigh monocyte population in blood [2]: increase was not seen
- CD11b+Ly6Chigh monocyte population in blood [2]: increase was not seen
- Neutrophil populations in blood [2]: no differences
